Series [1] is described as follows: Ocular tissue distribution of ketorolac after intracameral OMS302 during IOL replacement in dogs. Type of series: in vivo, female beagles. The method, then:
This example describes the results of an in vivo study in dogs to determine the concentrations of ketorolac in the retina and other ocular tissues following the intracameral administration of phenylephrine 1% and ketorolac 0.3% injection formulated as described in Table 1 (OMS302) during IOL replacement in dogs.
(§1) IOL replacement by phacoemulsification was performed on 20 female beagles. During the procedure, OMS302 was administered in BSS solution via irrigation and intracameral injection immediately post-procedure. The target dose level of ketorolac was 5.71 mg/eye, and the target dose volume of OMS302 diluted in BSS solution was […] per eye. Four animals per time point were sacrificed at 0, 2, 6, 8, and 10 hours post-procedure. Samples of blood and aqueous humor were collected. Enucleated eyes were frozen and dissected for collection of retina, retinal pigmented epithelium-choroid, cornea, iris-ciliary body, vitreous humor, sclera, and lens capsule. Tissue concentrations of ketorolac were quantitated using a liquid chromatography/mass spectrometry (LCMS) method. Using published IC50 values for cyclooxygenase (COX) inhibition by ketorolac (Waterbury, et. al., Curr Med Res Opin 22(6):1133-40 (2006)), estimates of percent inhibition were derived for each time point.

In series [2] the test system is COX-1. The series is described as follows: Estimated percent inhibition of COX-1 from tissue ketorolac concentrations in dogs. Type of series: in vivo, female beagles. The conditions noted are these: for estimated COX-1 inhibition: retina. The method, then: as §1
For series [3], the system named is COX-2. The series is described as follows: Estimated percent inhibition of COX-2 from tissue ketorolac concentrations in dogs. The note with it: for estimated COX-2 inhibition: retina. Type of series: in vivo, female beagles. The method, then: IOL replacement by phacoemulsification was performed on 20 female beagles. During the procedure, OMS302 was administered in BSS solution via irrigation and intracameral injection immediately post-procedure. […] Four animals per time point were sacrificed at 0, 2, 6, 8, and 10 hours post-procedure. Samples of blood and aqueous humor were collected. Enucleated eyes were frozen and dissected for collection of retina, retinal pigmented epithelium-choroid, cornea, iris-ciliary body, vitreous humor, sclera, and lens capsule. Tissue concentrations of ketorolac were quantitated using a liquid chromatography/mass spectrometry (LCMS) method.

For series [4] the following is noted: human, in vivo.
Source text: Patients undergoing cataract extraction and lens replacement (CELR) were eligible. Written informed consent was obtained from 14 subjects, each of whom received topical ophthalmic ketorolac according to the surgeon's usual practice, beginning one day preoperatively. Immediately prior to the initial surgical incision, the surgeon withdrew a 100-μL sample of aqueous humor from the operative eye with a 30-gauge tuberculin syringe. At the conclusion of CELR prior to final re-inflation of the anterior chamber and wound closure, the surgeon withdrew another 100-μL sample from the anterior chamber. The ketorolac concentrations of the intracameral fluid samples were analyzed by an analytical laboratory.
Series [5] addresses COX-1 (Homo sapiens, UniProt P23219). The conditions noted are these: cited from earlier work.
The target of series [6] is T1, COX-2 (Homo sapiens, UniProt P35354).
T1 sequence (P35354 18-604): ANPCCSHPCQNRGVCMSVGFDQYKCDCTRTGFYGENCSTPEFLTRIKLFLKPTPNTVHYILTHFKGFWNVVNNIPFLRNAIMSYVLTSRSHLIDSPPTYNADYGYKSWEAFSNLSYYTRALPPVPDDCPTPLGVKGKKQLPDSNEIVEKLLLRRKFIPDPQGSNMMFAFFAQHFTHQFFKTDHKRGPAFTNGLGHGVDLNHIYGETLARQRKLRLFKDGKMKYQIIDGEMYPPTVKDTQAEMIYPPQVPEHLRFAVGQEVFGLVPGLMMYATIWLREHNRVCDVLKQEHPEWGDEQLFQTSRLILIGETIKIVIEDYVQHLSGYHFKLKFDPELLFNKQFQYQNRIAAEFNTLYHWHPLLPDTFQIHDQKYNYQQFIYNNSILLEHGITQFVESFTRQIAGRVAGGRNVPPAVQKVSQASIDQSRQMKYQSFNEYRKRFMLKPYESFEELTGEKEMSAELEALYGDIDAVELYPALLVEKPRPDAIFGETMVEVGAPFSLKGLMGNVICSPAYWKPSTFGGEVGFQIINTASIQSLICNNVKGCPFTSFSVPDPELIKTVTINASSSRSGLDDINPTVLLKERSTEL
The note with it: cited from earlier work.

In a further series the test system is PGE2 production. The note with it: ketorolac 0.45% compared to nepafenac 0.1% and bromfenac 0.09; cited from earlier work.
[7] abbreviates: aqueous humor, vitreous humor and RPE-choroid, t=8 hours.
Where [8] appears, read: for at least 8 hours following drug administration.
The mark [9] stands for this setting: for at least 10 hours following drug administration.
[10] abbreviates: used for the estimate of percent inhibition.

Read-outs that look alike come from different tables or passages of the source. A value given as a limit tells only on which side of the number the result lay.

Chain of COX-1 (Homo sapiens, UniProt P23219) (P23219 24-599): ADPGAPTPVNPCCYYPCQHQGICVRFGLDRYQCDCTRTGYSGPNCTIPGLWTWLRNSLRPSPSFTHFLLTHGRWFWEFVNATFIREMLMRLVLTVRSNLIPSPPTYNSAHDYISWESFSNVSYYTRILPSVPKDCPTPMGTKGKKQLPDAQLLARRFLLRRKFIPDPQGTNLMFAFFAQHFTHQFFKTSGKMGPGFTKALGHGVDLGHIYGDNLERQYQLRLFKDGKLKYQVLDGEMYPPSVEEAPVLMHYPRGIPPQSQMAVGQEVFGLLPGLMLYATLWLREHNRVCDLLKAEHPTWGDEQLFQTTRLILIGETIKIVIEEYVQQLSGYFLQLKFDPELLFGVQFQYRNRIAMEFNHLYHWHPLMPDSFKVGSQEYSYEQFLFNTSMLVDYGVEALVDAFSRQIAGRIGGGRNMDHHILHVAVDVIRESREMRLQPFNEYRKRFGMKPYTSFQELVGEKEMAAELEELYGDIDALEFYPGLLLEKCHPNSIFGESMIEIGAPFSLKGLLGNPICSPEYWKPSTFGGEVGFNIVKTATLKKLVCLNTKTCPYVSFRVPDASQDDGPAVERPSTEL

One may read the half-life as the time in which the quantity being followed falls by half. Broadly, the IC50 is the concentration needed to halve the response being measured. As a reminder, the Ki is the dissociation constant of the complex between target and ligand, obtained from inhibition or displacement. Turning to `O=C(c1ccccc1)c1ccc2n1CCC2C(=O)O` (racemic) [ketorolac, (+/−)-5-Benzoyl-2,3-dihydro-1H-pyrrolizine-1-carboxylic acid: 2-amino-2(hydroxymethyl)-1,3-propanediol (1:1)], the concentration at 0 h in series [1] (female, beagle, dog, plasma, 5.71 mg/eye, t=0, read-out: mean plasma level of ketorolac) was 4.73 ± 1.46 ng/mL; in series [1] (female, beagle, dog, retina, 5.71 mg/eye, immediately following the end of IOL replacement (t=0), intracameral OMS302 in BSS, read-out: Ketorolac concentration in the retina), 1400 ± 1000 ng/g. The same molecule came in with a concentration at 8 h in series [1] (female, beagle, dog, retina, 5.71 mg/eye, eight hours post-procedure, intracameral OMS302 in BSS) of 164 ± 39 ng/g. The half-life in series [1] (female, beagle, dog, retina, 5.71 mg/eye, ketorolac after intracameral OMS302, read-out: retinal half-life (converted)) was around 3.8 h. Further, the “mean plasma level of ketorolac” value in series [1] (t≥2 hours) is given as “undetectable”. In addition, the “inhibition of COX-1” value in the series on COX-1 [2] (setting [7]) is above 90%. The “inhibition of COX-1 in ocular tissues” value with COX-1 [2] (setting [8]) is on record as “at least 90%”; in the series with COX-1 [2] (setting [9]), “at least 85%”. In addition, the figures for the “estimated COX-1 inhibition” value in the series with COX-1 [2] (t=0) and in the series with COX-1 [2] (t=8 hours) were 99.3% and 98.4%, respectively. Further, the “mean percent inhibition of COX-1” value in the series on COX-1 [2] (retinal tissue, t=10 hours, standard deviation 0.36%) is listed as 97.74%. The “inhibition of COX-2” value in the series on COX-2 [3] (setting [7]) was above 90%. Further, the “inhibition of COX-2 in ocular tissues” value in the series on COX-2 [3] (setting [8]) is listed as “at least 90%”; in the series on COX-2 [3] (setting [9]), “at least 85%”. The “estimated COX-2 inhibition” value with COX-2 [3] (t=0) is 96.0%; with COX-2 [3] (t=8 hours) it was 91.1%. Also, the “subjects with an undetectable concentration of ketorolac in the aqueous humor at the end of the surgical procedure” value in series [4] is 66.7%. The values for the 50% inhibitory concentration (IC50) at COX-1 [5] (published value) and at COX-2 [6] (published value) were 0.02 µM and 0.12 µM, respectively. Also, the Ki on COX-1 [5] (setting [10]) is 0.01 µM; on COX-2 [6] (setting [10]), 0.06 µM. For the same molecule, in the series with PGE2 production, the “inhibition of PGE2” value was “greatest inhibition”.

These data come from US12167999B2, “Anti-inflammatory and mydriatic intracameral solutions for inhibition of postoperative ocular inflammatory conditions” (Rayner Intraocular Lenses Limited, priority 2014, dated 2024).
